PubChem BioAssay (NCI)
Several values for one entry are separate records, joined by “and”; a condition that tells them apart may be missing. Equal entries are not always repeated.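 Protocol summary: plate cells (96-well), add compound at 5 concentrations, incubate 48 h, interpolate endpoints linearly. GI50 is the concentration that inhibits growth by half. At the TGI there is no net growth.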

Assays:
Assay in all cases: NCI anticancer screen, dose series, 48 h
[1] = system: UACC-62 melanoma
[2] = system: HS 578T breast
[3] = system: NCI-H522 lung
[4] = system: DU-145 prostate
[5] = system: T-47D breast
[6] = system: COLO 205 colon
[7] = system: MALME-3M melanoma
[8] = system: MDA-MB-231 breast
[9] = system: NCI/ADR-RES ovarian
[10] = system: KM12 colon
[11] = system: HT29 colon
[12] = system: UO-31 renal
[13] = system: SF-539 CNS
[14] = system: HOP-92 NSCLC
[15] = system: NCI-H23 lung
[16] = system: HL-60(TB) leukemia
[17] = system: HCT-15 colon
[18] = system: BT-549 breast
[19] = system: 786-0 renal
[20] = system: K-562 leukemia
[21] = system: MDA-N
[22] = system: SNB-75 CNS
[23] = system: MCF7 breast
[24] = system: OVCAR-3 ovarian
[25] = system: SK-MEL-28 melanoma
[26] = system: HOP-62 NSCLC
[27] = system: SF-295 CNS
[28] = system: MOLT-4 leukemia
[29] = system: SK-MEL-5 melanoma
[30] = system: TK-10 renal
[31] = system: OVCAR-5 ovarian
[32] = system: EKVX NSCLC
[33] = system: CAKI-1 renal
[34] = system: SNB-19 CNS
[35] = system: RPMI-8226 leukemia
[36] = system: ACHN renal
[37] = system: SR leukemia
[38] = system: UACC-257 melanoma
[39] = system: IGROV1 ovarian
[40] = system: A498 renal
[41] = system: U251 CNS
[42] = system: SW-620 colon
[43] = system: OVCAR-4 ovarian
[44] = system: MDA-MB-435
[45] = system: SN12C renal
[46] = system: PC-3 prostate
[47] = system: NCI-H226 lung
[48] = system: A549 NSCLC
[49] = system: NCI-H460 lung
[50] = system: CCRF-CEM leukemia
[51] = system: M14 melanoma
[52] = system: OVCAR-8 ovarian
[53] = system: SK-MEL-2 melanoma
[54] = system: SF-268 CNS
[55] = system: RXF 393 renal
[56] = system: SK-OV-3 ovarian
[57] = system: HCT-116 colon
[58] = system: LOX IMVI melanoma
[59] = system: HCC-2998 colon

SMILES: CCCCCOC(=O)C(=O)Nc1n[nH]nc1C(N)=O
- TGI [1]: > 100 µM
- TGI [2]: > 100 µM
- TGI [3]: > 100 µM
- TGI [4]: > 100 µM
- TGI [5]: > 100 µM
- TGI [6]: > 100 µM
- TGI [7]: > 100 µM
- TGI [8]: > 100 µM
- TGI [9]: > 100 µM
- TGI [10]: > 100 µM
- TGI [11]: > 100 µM
- TGI [12]: > 100 µM
- TGI [13]: > 100 µM
- TGI [14]: > 100 µM
- TGI [15]: > 100 µM
- TGI [16]: > 100 µM
- TGI [17]: > 100 µM
- TGI [18]: > 100 µM
- TGI [19]: > 100 µM
- TGI [20]: > 100 µM
- TGI [21]: > 100 µM
- TGI [22]: > 100 µM
- TGI [23]: > 100 µM
- TGI [24]: > 100 µM
- TGI [25]: > 100 µM
- TGI [26]: > 100 µM
- TGI [27]: > 100 µM
- TGI [28]: > 100 µM
- TGI [29]: > 100 µM
- TGI [30]: > 100 µM
- TGI [31]: > 100 µM
- TGI [32]: > 100 µM
- TGI [33]: > 100 µM
- TGI [34]: > 100 µM
- TGI [35]: > 100 µM
- TGI [36]: > 100 µM
- TGI [37]: > 100 µM
- TGI [38]: > 100 µM
- TGI [39]: > 100 µM
- TGI [40]: > 100 µM
- TGI [41]: > 100 µM
- TGI [42]: > 100 µM
- TGI [43]: > 100 µM
- TGI [44]: > 100 µM
- TGI [45]: > 100 µM
- TGI [46]: > 100 µM
- TGI [47]: > 100 µM
- TGI [48]: > 100 µM
- TGI [49]: > 100 µM
- TGI [50]: > 100 µM
- TGI [51]: > 100 µM
- TGI [52]: > 100 µM
- TGI [53]: > 100 µM
- TGI [54]: > 100 µM
- TGI [55]: > 100 µM
- TGI [56]: > 100 µM
- TGI [57]: > 100 µM
- TGI [58]: > 100 µM
- TGI [59]: > 100 µM

SMILES: Cc1[nH]c2ncn(Nc3ccccc3)c(=N)c2c1Cc1ccccc1
- TGI [1]: > 100 µM
- TGI [2]: > 100 µM
- TGI [3]: > 100 µM
- TGI [4]: > 100 µM
- TGI [5]: > 86.9 µM
- TGI [6]: > 100 µM
- TGI [7]: > 100 µM
- TGI [8]: > 100 µM
- TGI [9]: > 100 µM
- TGI [10]: > 56.8 µM
- TGI [11]: > 100 µM
- TGI [12]: > 100 µM
- TGI [13]: > 100 µM
- TGI [14]: > 100 µM
- TGI [15]: > 100 µM
- TGI [16]: > 100 µM
- TGI [17]: > 100 µM
- TGI [18]: > 100 µM
- TGI [19]: > 100 µM
- TGI [20]: > 100 µM
- TGI [21]: > 100 µM
- TGI [22]: > 100 µM
- TGI [23]: > 100 µM
- TGI [24]: > 100 µM
- TGI [25]: > 100 µM
- TGI [26]: > 100 µM
- TGI [27]: > 100 µM
- TGI [28]: > 100 µM
- TGI [29]: > 100 µM
- TGI [30]: > 100 µM
- TGI [31]: > 100 µM
- TGI [32]: > 100 µM
- TGI [33]: > 70.6 µM
- TGI [34]: > 100 µM
- TGI [35]: > 100 µM
- TGI [36]: > 100 µM
- TGI [37]: > 100 µM
- TGI [38]: > 100 µM
- TGI [39]: 98.4 µM
- TGI [40]: > 100 µM
- TGI [41]: > 100 µM
- TGI [42]: > 100 µM
- TGI [43]: > 100 µM
- TGI [44]: > 100 µM
- TGI [45]: > 100 µM
- TGI [46]: > 100 µM
- TGI [47]: > 100 µM
- TGI [48]: > 100 µM
- TGI [49]: > 100 µM
- TGI [50]: > 100 µM
- TGI [51]: > 100 µM
- TGI [52]: > 100 µM
- TGI [54]: > 100 µM
- TGI [55]: > 91.6 µM
- TGI [56]: > 100 µM
- TGI [57]: > 100 µM
- TGI [58]: > 100 µM
- TGI [59]: > 100 µM

SMILES: COc1ccc(C2CC(c3ccc4ccccc4c3O)=NN2)cc1OC (centres undefined)
- TGI [1]: > 100 µM
- TGI [2]: > 100 µM
- TGI [3]: > 100 µM
- TGI [4]: > 100 µM
- TGI [5]: > 100 µM
- TGI [6]: > 100 µM
- TGI [7]: > 100 µM
- TGI [8]: 96 µM
- TGI [9]: > 100 µM
- TGI [10]: > 100 µM
- TGI [11]: > 100 µM
- TGI [12]: > 100 µM
- TGI [13]: > 100 µM
- TGI [14]: > 100 µM
- TGI [15]: > 100 µM
- TGI [17]: > 100 µM
- TGI [18]: 74 µM
- TGI [19]: > 100 µM
- TGI [20]: 52.1 µM
- TGI [21]: 60.8 µM
- TGI [22]: > 100 µM
- TGI [23]: > 100 µM
- TGI [24]: > 100 µM
- TGI [25]: > 100 µM
- TGI [26]: > 100 µM
- TGI [27]: > 100 µM
- TGI [28]: 65.4 µM
- TGI [29]: > 100 µM
- TGI [30]: > 100 µM
- TGI [31]: > 100 µM
- TGI [33]: > 100 µM
- TGI [35]: > 100 µM
- TGI [36]: > 100 µM
- TGI [37]: 46.3 µM
- TGI [38]: > 100 µM
- TGI [39]: > 100 µM
- TGI [40]: > 100 µM
- TGI [41]: > 100 µM
- TGI [42]: > 100 µM
- TGI [43]: > 100 µM
- TGI [44]: > 100 µM
- TGI [45]: > 100 µM
- TGI [46]: > 100 µM
- TGI [47]: > 100 µM
- TGI [48]: > 100 µM
- TGI [49]: > 100 µM
- TGI [50]: 42.6 µM
- TGI [51]: > 100 µM
- TGI [52]: > 100 µM
- TGI [53]: > 100 µM
- TGI [54]: > 100 µM
- TGI [55]: > 100 µM
- TGI [56]: > 100 µM
- TGI [57]: > 100 µM
- TGI [59]: > 100 µM

SMILES: CC(=O)O[C@H]1CC2C(C3CC[C@H](C(C)CCC(N)=O)[C@]31C)[C@H](OC(C)=O)C[C@@H]1CC3(CC[C@]21C)OOC1(CCC(C)CC1)OO3 (some centres undefined)
- GI50 [1]: 1.85 µM
- TGI [1]: 3.99 µM
- TGI [2]: 5.77 µM and 5.51 µM
- TGI [3]: 3.6 µM and 2.94 µM
- GI50 [4]: 1.82 µM
- TGI [4]: 3.26 µM
- TGI [5]: 4.19 µM and 4.21 µM
- TGI [6]: 3.19 µM and 3.12 µM
- TGI [7]: 9.95 µM and 4.07 µM
- TGI [8]: 4.94 µM
- TGI [9]: 8.01 µM and 3.28 µM
- TGI [10]: 4.69 µM and 3.41 µM
- TGI [11]: 7.01 µM
- TGI [12]: 3.08 µM and 2.64 µM
- TGI [13]: 7.1 µM and 3.37 µM
- TGI [14]: 6.25 µM and 3.56 µM
- TGI [15]: 5.29 µM and 3.45 µM
- TGI [16]: 6.13 µM and 4.82 µM
- TGI [17]: 4.89 µM and 3.43 µM
- TGI [18]: 6.43 µM and 3.35 µM
- TGI [19]: 3.78 µM and 3.2 µM
- TGI [20]: 16.8 µM and 5 µM
- TGI [21]: 4.91 µM
- GI50 [22]: 1.98 µM
- TGI [22]: 4.05 µM
- TGI [23]: 15.2 µM and 5.01 µM
- TGI [24]: 3.51 µM and 3.8 µM
- GI50 [25]: 5.65 µM and 2.48 µM
- TGI [25]: 14.3 µM and 8.13 µM
- GI50 [26]: 1.47 µM and 1.07 µM
- TGI [26]: 2.96 µM and 2.31 µM
- TGI [27]: 12.3 µM and 3.59 µM
- TGI [28]: 4.47 µM and 4.44 µM
- TGI [29]: 11.6 µM and 3.22 µM
- TGI [30]: 8.39 µM and 3.57 µM
- TGI [31]: 4.86 µM and 3.66 µM
- GI50 [32]: 1.01 µM and 1.43 µM
- TGI [32]: 2.35 µM and 2.78 µM
- TGI [33]: 5.15 µM and 3.25 µM
- GI50 [34]: 5.31 µM and 2.62 µM
- TGI [34]: 19.4 µM and 5.72 µM
- TGI [35]: 4.07 µM
- TGI [36]: 3.88 µM and 2.93 µM
- TGI [37]: 3.28 µM
- TGI [38]: 22.9 µM and 19.2 µM
- GI50 [39]: 1.54 µM and 0.491 µM
- TGI [39]: 3.07 µM and 1.84 µM
- TGI [40]: 29.3 µM and 24.4 µM
- TGI [41]: 3.78 µM
- TGI [42]: 11.5 µM and 4.24 µM
- TGI [43]: 3.52 µM and 3.02 µM
- TGI [44]: 4.47 µM and 3.23 µM
- TGI [45]: 5.69 µM and 3.24 µM
- TGI [46]: 9.44 µM and 4.29 µM
- TGI [47]: 6.2 µM and 3.15 µM
- TGI [48]: 6.13 µM
- TGI [49]: 8.76 µM
- TGI [50]: 3.33 µM and 4.43 µM
- TGI [51]: 8.64 µM and 3.76 µM
- TGI [52]: 4.56 µM and 3.12 µM
- TGI [53]: 4.37 µM and 3.2 µM
- TGI [54]: 4.46 µM
- TGI [55]: 9.72 µM
- GI50 [56]: 4.3 µM and 2.11 µM
- TGI [56]: 16.3 µM and 3.94 µM
- TGI [57]: 5.36 µM and 3.72 µM
- TGI [59]: 4.57 µM and 3.96 µM
